Test results from patent US10669274B2, “Azaphenalene-3-one derivative, preparation method therefor, and application therof” (SUZHOU KANGRUN PHARMACEUTICALS INC., priority 2017, dated 2020).

Biological target: T1, PARP1 (Homo sapiens, UniProt P09874)
T1 construct: purchased Trevigen
Test: Determination of PARP1 inhibitory activity (Universal PARP colorimetric assay kit, Trevigen)
Assay type: biochemical
Details: for IC50: PARP1, OD at 450 nm, Logit method; for Inhibition (%): footnote: inhibition rate below 500 nM unless indicating otherwise
Protocol: Determination of PARP1 inhibitory activity
Method for determining PARP1 inhibitory activity:
(1) adding 50 μL of 1X PARP Buffer to each well, incubating for 30 min at room temperature, and drying;
(3) adding 25 μL of 1X PARP1 cocktail to each well and incubating for 60 min at room temperature;

T1 sequence (P09874 whole entry): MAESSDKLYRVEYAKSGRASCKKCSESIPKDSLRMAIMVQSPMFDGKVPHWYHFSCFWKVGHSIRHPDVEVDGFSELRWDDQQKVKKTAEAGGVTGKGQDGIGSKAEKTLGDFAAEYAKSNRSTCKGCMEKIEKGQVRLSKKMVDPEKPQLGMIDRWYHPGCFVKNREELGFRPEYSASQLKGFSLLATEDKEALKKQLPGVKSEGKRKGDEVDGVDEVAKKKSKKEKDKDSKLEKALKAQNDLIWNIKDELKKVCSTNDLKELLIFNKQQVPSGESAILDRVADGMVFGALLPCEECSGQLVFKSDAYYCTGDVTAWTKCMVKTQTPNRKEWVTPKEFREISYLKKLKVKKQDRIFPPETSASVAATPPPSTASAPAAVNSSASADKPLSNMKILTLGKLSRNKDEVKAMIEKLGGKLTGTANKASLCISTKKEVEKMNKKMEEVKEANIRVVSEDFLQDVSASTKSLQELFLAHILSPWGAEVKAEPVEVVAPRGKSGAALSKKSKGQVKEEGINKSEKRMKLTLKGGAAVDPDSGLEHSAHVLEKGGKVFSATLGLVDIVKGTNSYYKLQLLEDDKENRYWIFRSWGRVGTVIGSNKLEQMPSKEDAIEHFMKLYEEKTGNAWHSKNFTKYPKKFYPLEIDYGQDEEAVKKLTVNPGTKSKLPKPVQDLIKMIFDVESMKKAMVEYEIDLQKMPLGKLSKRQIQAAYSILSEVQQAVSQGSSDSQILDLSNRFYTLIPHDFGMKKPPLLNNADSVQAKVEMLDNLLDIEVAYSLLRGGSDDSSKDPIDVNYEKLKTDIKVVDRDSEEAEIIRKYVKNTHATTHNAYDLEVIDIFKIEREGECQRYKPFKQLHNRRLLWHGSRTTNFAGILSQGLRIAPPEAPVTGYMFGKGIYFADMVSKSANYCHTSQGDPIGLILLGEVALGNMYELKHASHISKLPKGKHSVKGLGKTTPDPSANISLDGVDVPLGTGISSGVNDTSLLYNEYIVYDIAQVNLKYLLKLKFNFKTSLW

| inhibition at 1 µM (PARP1 enzyme inhibition rate, 1 μM) [%] | inhibition at 10 µM (PARP1 enzyme inhibition rate, 10 μM) [%] | Compound | IC50 [nM] | Inhibition (%) (PARP1 enzyme inhibition rate) |
| --- | --- | --- | --- | --- |
| 23.6 |  | NC(=O)c1ccc(I)c([N+](=O)[O-])c1 [BSI-201, reference compound] |  |  |
|  | 16.9 | NC(=O)c1cccc(N)c1 [Compound 3-AB, reference compound] |  |  |
|  |  | CC1=CN2C(=Nc3cccc4c(=O)[nH]nc2c34)C=C1 [Compound 9] | 81.9 | 87.58 |
|  |  | O=c1[nH]nc2c3c(cccc13)N=C1C=CC(CNCC(F)(F)F)=CN12 [Compound A2] | 346 | 76.29 |
|  |  | CCN(CC)CC1=CN2C(=Nc3cccc4c(=O)[nH]nc2c34)C=C1 [Compound A3] | 137 | 84.77 |
|  |  | O=c1[nH]nc2c3c(cccc13)N=C1C=CC(CN3CCCC3)=CN12 [Compound A4] | 103 | 84.77 |
|  |  | O=c1[nH]nc2c3c(cccc13)N=C1C=CC(Cn3ccnc3)=CN12 [Compound A5] | 164 | 95.72 |
|  |  | O=c1[nH]nc2c3c(cccc13)N=C1C=CC(CN3CCCCC3)=CN12 [Compound A6] | 294 | 91.67 |
|  |  | O=c1[nH]nc2c3c(cccc13)N=C1C=CC(CN3CCOCC3)=CN12 [Compound A7] | 194 | 73.37 |
|  |  | CNC1CCN(CC2=CN3C(=Nc4cccc5c(=O)[nH]nc3c45)C=C2)CC1 [Compound A8] |  | 79.97 |
|  |  | CN(C)C1CCN(CC2=CN3C(=Nc4cccc5c(=O)[nH]nc3c45)C=C2)CC1 [Compound A9] |  | 82.15 |
|  |  | CN1CCC(N(C)CC2=CN3C(=Nc4cccc5c(=O)[nH]nc3c45)C=C2)CC1 [Compound A10] | 119 | 88.97 |
|  |  | CN(CC1=CN2C(=Nc3cccc4c(=O)[nH]nc2c34)C=C1)C1CCN(c2ccccc2)CC1 [Compound A11] | 160 | 92.42 |
|  |  | CN(CC1=CN2C(=Nc3cccc4c(=O)[nH]nc2c34)C=C1)C1CCN(Cc2ccccc2)CC1 [Compound A12] |  | 89.42 |
|  |  | O=c1[nH]nc2c3c(cccc13)N=C1C=CC(CN3CCc4ccc(F)cc4C3)=CN12 [Compound A13] |  | 79.67 |
